Data from patent US12448395B2 (BRISTOL-MYERS SQUIBB COMPANY, priority 2019, dated 2025).
pIC50: −log10 of the molar value.

Columns and labels:
Type in all cases: cell-based
human TLR9 = biological target: T1, human TLR9 (Homo sapiens, UniProt Q9NR96); test: TLR9 inhibition reporter assay (HEK-Blue SEAP, ODN2006 stimulation); conditions: HEK-Blue cells overexpressing human TLR9, ODN2006 5 nM
T1 sequence (Q9NR96 26-1032): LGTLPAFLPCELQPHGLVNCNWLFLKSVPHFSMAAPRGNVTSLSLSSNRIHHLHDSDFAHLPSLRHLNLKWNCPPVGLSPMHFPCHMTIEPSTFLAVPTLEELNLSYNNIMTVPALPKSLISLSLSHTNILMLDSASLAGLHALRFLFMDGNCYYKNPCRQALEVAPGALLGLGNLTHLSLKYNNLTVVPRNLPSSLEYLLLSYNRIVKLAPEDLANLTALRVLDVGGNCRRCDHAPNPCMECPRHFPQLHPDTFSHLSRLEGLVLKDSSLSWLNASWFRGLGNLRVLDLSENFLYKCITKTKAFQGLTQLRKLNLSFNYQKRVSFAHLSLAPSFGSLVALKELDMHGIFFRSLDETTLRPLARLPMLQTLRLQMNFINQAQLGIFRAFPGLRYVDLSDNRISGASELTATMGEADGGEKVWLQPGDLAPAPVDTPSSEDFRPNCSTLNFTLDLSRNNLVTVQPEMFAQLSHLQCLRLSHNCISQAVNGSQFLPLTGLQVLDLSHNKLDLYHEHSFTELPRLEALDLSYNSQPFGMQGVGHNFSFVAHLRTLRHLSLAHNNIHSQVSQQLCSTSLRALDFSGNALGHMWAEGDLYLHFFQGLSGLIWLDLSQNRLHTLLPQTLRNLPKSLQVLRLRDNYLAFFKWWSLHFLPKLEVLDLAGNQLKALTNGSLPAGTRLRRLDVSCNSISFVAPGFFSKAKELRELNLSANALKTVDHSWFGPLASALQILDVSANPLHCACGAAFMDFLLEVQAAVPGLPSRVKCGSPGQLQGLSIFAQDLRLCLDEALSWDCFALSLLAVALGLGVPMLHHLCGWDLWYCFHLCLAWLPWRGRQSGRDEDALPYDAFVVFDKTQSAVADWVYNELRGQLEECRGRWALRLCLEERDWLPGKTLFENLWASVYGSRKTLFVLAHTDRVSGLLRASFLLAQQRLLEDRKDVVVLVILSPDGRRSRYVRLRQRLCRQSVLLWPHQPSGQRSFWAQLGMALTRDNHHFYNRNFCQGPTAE
Procedure, shortened: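 Dose–response from 0.05 nM to 50 μM was run in HEK-Blue human TLR7, TLR8 and TLR9 reporter cells. After 30 min at room temperature with compound, ligand was added (TLR7 gardiquimod 7.5 μM; TLR8 R848 15.9 μM; TLR9 ODN2006 5 nM) and SEAP measured next day, at 22 h.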

human TLR8 = biological target: T2, human TLR8 (Homo sapiens, UniProt Q9NR97); test: TLR8 inhibition reporter assay (HEK-Blue SEAP, R848 stimulation); conditions: HEK-Blue cells overexpressing human TLR8, R848 15.9 μM
T2 sequence (Q9NR97 27-1041): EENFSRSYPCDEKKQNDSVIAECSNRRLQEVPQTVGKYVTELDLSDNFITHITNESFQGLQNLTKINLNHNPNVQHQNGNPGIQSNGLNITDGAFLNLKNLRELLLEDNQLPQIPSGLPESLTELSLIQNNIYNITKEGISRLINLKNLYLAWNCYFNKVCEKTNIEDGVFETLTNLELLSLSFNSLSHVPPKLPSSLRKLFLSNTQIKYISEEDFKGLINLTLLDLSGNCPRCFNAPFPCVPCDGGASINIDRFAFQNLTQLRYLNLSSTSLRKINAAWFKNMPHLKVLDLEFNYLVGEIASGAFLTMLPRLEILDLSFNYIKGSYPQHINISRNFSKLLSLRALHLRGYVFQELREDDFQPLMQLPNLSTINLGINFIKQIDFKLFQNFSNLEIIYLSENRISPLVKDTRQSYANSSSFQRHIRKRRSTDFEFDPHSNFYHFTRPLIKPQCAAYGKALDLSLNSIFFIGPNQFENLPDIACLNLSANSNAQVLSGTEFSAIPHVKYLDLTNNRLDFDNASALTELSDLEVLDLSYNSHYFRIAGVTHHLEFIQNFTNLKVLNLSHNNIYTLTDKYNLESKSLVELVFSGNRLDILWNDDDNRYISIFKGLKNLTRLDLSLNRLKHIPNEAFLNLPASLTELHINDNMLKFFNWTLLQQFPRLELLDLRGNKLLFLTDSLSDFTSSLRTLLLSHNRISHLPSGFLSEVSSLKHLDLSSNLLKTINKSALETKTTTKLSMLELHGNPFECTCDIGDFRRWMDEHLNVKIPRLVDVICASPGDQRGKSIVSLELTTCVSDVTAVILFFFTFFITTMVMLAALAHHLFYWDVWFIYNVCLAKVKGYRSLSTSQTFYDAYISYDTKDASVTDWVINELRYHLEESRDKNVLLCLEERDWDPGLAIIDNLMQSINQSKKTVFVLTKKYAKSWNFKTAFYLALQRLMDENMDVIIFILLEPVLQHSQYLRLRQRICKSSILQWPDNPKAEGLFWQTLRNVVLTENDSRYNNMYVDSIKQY
Description: (§1) TLR7/8/9 Inhibition Reporter Assays
(§2) HEK-Blue™-cells (Invivogen) overexpressing human TLR7, TLR8 or TLR9 receptors were used for screening inhibitors of these receptors using an inducible SEAP (secreted embryonic alkaline phosphatase) reporter gene under the control of the IFN-β minimal promoter fused to five NF-κB and AP-1-binding sites. Briefly, cells are seeded into Greiner 384 well plates (15000 cells per well for TLR7, 20,000 for TLR8 and 25,000 for TLR9) and then treated with test compounds in DMSO to yield a final dose response concentration range of 0.05 nM-50 μM. After a 30 minute compound pre-treatment at room temperature, the cells are then stimulated with a TLR7 ligand (gardiquimod at a final concentration of 7.5 μM), TLR8 ligand (R848 at a final concentration of 15.9 μM) or TLR9 ligand (ODN2006 at a final concentration of 5 nM) to activate NF-κB and AP-1 which induce the production of SEAP. After a 22 hour incubation at 37° C., 5% CO2, SEAP levels are determined with the addition of HEK-Blue™ Detection reagent (Invivogen), a cell culture medium that allows for detection of SEAP, according to manufacturer's specifications. The percent inhibition is determined as the % reduction in the HEK-Blue signal present in wells treated with agonist plus DMSO alone compared to wells treated with a known inhibitor.

human TLR7 = biological target: T3, human TLR7 (Homo sapiens, UniProt Q9NYK1); test: TLR7 inhibition reporter assay (HEK-Blue SEAP, gardiquimod stimulation); conditions: HEK-Blue cells overexpressing human TLR7, gardiquimod 7.5 μM
T3 sequence (Q9NYK1 27-1049): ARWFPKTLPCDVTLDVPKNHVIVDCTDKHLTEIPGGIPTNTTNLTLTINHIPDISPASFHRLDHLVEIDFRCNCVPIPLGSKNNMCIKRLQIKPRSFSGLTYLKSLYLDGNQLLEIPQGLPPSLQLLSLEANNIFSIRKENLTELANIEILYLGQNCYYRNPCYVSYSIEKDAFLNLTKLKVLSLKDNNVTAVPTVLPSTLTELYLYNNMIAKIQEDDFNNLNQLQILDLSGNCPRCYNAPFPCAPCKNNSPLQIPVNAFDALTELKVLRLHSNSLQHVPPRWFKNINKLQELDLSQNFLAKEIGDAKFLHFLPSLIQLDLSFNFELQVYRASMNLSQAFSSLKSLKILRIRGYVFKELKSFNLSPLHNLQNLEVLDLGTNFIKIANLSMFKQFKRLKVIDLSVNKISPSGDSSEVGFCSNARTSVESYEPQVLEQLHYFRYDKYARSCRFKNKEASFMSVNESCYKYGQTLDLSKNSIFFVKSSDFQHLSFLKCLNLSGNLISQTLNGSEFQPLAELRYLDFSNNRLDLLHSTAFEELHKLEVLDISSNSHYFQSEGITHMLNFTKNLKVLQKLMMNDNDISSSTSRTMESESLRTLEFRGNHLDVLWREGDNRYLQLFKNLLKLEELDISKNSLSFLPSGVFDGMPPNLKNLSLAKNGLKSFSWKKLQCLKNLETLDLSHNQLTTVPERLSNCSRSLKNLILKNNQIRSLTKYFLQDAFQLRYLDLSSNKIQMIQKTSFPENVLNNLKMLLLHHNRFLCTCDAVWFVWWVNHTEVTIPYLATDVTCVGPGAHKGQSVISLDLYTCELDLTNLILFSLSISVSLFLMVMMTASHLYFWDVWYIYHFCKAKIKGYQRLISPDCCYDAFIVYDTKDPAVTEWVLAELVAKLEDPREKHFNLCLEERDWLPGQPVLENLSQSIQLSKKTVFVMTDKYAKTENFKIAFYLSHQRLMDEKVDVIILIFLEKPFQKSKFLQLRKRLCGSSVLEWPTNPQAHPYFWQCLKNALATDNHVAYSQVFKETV
Description: as §1, §2

Which results are given for `Cc1c(-c2[nH]c3sc(C4CCC(NCC(=O)N5CCOCC5)CC4)nc3c2C(C)C)cn2ncnc2c1C` (single isomer, unassigned) [Example 207, 2-((4-(5-(7,8-dimethyl-[1,2,4]triazolo[1,5-a]pyridin-6-yl)-6-isopropyl-4H-pyrrolo[3,2-d]thiazol-2-yl)cyclohexyl)amino)-1-morpholinoethan-1-one]?
pIC50 (human TLR9): 4.68; pIC50 (human TLR8): 9.51; pIC50 (human TLR7): 8.53

`Cc1c(-c2[nH]c3sc(C4CCC(NCC(=O)N5CCOCC5)CC4)nc3c2C(C)C)cn2ncnc2c1C` (single isomer, unassigned) [Example 206, 2-((4-(5-(7,8-dimethyl-[1,2,4]triazolo[1,5-a]pyridin-6-yl)-6-isopropyl-4H-pyrrolo[3,2-d]thiazol-2-yl)cyclohexyl)amino)-1-morpholinoethan-1-one] was tested. Which pIC50 (human TLR9) did it give?
Its pIC50 is 4.90.

What about the pIC50 (human TLR8) of the same molecule?
Its pIC50 is 9.19.

And the pIC50 (human TLR7)?
Its pIC50 is 8.64.
